# Test results published in US20240158446A1, “CYCLIC COMPOUND HAVING SELECTIVE INHIBITORY ACTION ON KRAS OVER HRAS AND NRAS” (CHUGAI SEIYAKU KABUSHIKI KAISHA, priority 2021, published 2024).
# Like-named read-outs stand apart in the source and are kept apart here.
# How the values were obtained:
# [1] = target: GDP-bound HRAS wild-type protein (Homo sapiens, UniProt P01112); test: Binding to HRAS by surface plasmon resonance (SPR), Single Cycle Kinetics; details: for HRAS/KRAS (ratio of KD value for HRAS to KD value for KRAS): SPR, GDP-bound HRAS wild-type protein vs GDP-bound KRAS wild-type protein; for HRAS/KRAS (ratio of KD value with respect to GDP-bound HRAS wild-type protein to KD value with respect to KRAS): SPR KD ratio HRAS/KRAS, class symbols
# Sequence of GDP-bound HRAS wild-type protein (P01112 whole entry): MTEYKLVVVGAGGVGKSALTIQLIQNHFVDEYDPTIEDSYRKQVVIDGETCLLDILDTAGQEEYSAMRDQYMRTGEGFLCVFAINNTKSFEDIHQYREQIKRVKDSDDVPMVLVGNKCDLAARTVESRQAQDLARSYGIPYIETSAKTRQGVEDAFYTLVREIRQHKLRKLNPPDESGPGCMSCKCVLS
# [2] = target: GDP-bound NRAS wild-type protein (Homo sapiens, UniProt P01111); test: Binding to NRAS by surface plasmon resonance (SPR), Single Cycle Kinetics; details: for NRAS/KRAS (ratio of KD value for NRAS to KD value for KRAS): SPR, GDP-bound NRAS wild-type protein vs GDP-bound KRAS wild-type protein; for NRAS/KRAS (ratio of KD value with respect to GDP-bound NRAS wild-type protein to KD value with respect to KRAS): SPR KD ratio NRAS/KRAS, class symbols
# Sequence of GDP-bound NRAS wild-type protein (P01111 whole entry): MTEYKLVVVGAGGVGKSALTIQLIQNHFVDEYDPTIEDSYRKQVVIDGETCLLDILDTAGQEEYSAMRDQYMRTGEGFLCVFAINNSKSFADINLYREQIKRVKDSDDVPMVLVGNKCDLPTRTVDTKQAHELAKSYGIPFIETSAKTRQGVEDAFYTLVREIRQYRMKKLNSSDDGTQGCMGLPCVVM
# [3] = tested on: human lung cancer strain NCI-H441;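 further: cell proliferation inhibition after four days measured by CellTiter-Glo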
# [4] = target: GDP-bound KRAS wild-type protein (Homo sapiens, UniProt P01116); test: Binding to KRAS by surface plasmon resonance (SPR), Single Cycle Kinetics; details: GDP-bound KRAS wild-type protein, read-out: KRAS KD
# Sequence of GDP-bound KRAS wild-type protein (P01116 whole entry): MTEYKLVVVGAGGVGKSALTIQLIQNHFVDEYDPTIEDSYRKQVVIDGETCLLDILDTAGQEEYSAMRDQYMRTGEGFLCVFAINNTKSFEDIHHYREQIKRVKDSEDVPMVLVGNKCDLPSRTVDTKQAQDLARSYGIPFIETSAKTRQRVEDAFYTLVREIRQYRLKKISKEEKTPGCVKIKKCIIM
# [5] = SPR, Single Cycle Kinetics, 1:1 binding model
# [6] = SPR Single Cycle Kinetics, 1:1 binding model
Structure (SMILES),IC50 [3],"Kd [4, 5]","Kd [4, 6]","Kd ([4]; SPR, Single Cycle Kinetics)",HRAS/KRAS (ratio of KD value for HRAS to KD value for KRAS) ([1]; KD ratio class),NRAS/KRAS (ratio of KD value for NRAS to KD value for KRAS) ([2]; KD ratio class),HRAS/KRAS (ratio of KD value with respect to GDP-bound HRAS wild-type protein to KD value with respect to KRAS) [1],NRAS/KRAS (ratio of KD value with respect to GDP-bound NRAS wild-type protein to KD value with respect to KRAS) [2],HRAS/KRAS (ratio of KD value for HRAS to KD value for KRAS) [1],NRAS/KRAS (ratio of KD value for NRAS to KD value for KRAS) [2]
CCO[C@@H]1C[C@H]2C(=O)NC3(CCC3)C(=O)N(C)[C@@H](C3CCCC3)C(=O)N(C)[C@H](C(=O)N(C)C)CC(=O)N(C)[C@@H](CC3CCCC3)C(=O)N[C@@H]([C@@H](C)CC)C(=O)N(C)CC(=O)N(C)[C@H]3C/C=C\CCN(C3=O)[C@@H](Cc3ccc(C(F)(F)F)cc3)C(=O)N(C)CC(=O)N[C@@H](CCc3cc(F)c(Cl)c(F)c3)C(=O)N2C1 [PP1264],15.9 nM,0.37 nM,–,–,B (a compound having 3 or more and less than 10 is denoted as B),A (a compound having 10 or more and less than 20 is denoted as A),–,–,–,–
CCCC[C@H]1C(=O)NC2(CCC2)C(=O)N(C)[C@@H](C2CCCC2)C(=O)N(C)[C@H](C(=O)N(C)C)CC(=O)N(C)[C@@H](CC)C(=O)N[C@@H]([C@@H](C)CC)C(=O)N(C)CC(=O)N(C)[C@H]2C/C=C\CCN(C2=O)[C@@H](Cc2ccc(C(F)(F)F)cc2)C(=O)N(C)CC(=O)N[C@@H](CCc2cc(F)c(C(F)(F)F)c(F)c2)C(=O)N1C [PP1150],42.7 nM,–,–,0.17 nM,–,–,–,–,A (a compound having 10 or more and less than 20 is denoted as A),AA (a compound having 20 or more is denoted as AA)
"C=CC[C@H]1C(=O)N[C@@H]([C@@H](C)CC)C(=O)N(C)CC(=O)N(C)[C@H]2C/C=C\CCN(C2=O)[C@@H](CC2CCCCC2)C(=O)N(C)CC(=O)N[C@@H](CCc2cc(F)c(C(F)(F)F)c(F)c2)C(=O)N2C[C@H](OCC)C[C@H]2C(=O)NC2(CCC2)C(=O)N(C)[C@@H](C2CCCC2)C(=O)N(C)[C@H](C(=O)N(C)C)CC(=O)N1C [PP1468, (2S,8S,12R,14S,20S,23S,27S,30S,36S,38Z)-27-allyl-2-(cyclohexylmethyl)-20-cyclopentyl-8-[2-[3,5-difluoro-4-(trifluoromethyl)phenyl]ethyl]-12-ethoxy-N,N,4,19,22,26,32,35-octamethyl-30-[(1S)-1-methylpropyl]-3,6,9,15,18,21,25,28,31,34,42-undecaoxo-spiro[1,4,7,10,16,19,22,26,29,32,35-undecazatricyclo[34.5.1.0^10,14]dotetracont-38-ene-17,1′-cyclobutane]-23-carboxamide]",9.5 nM,0.12 nM,–,–,A (a compound having 10 or more and less than 20 is denoted as A),A (a compound having 10 or more and less than 20 is denoted as A),–,–,–,–
CC[C@H](C)[C@@H]1NC(=O)[C@H](CC)N(C)C(=O)C[C@@H](C(=O)N2CCOCC2)N(C)C(=O)[C@H](C2CCCC2)N(C)C(=O)C2(CCCC2)NC(=O)[C@@H]2CCCN2C(=O)[C@H](CCc2cc(F)c(C(F)(F)F)c(F)c2)NC(=O)CN(C)C(=O)[C@H](Cc2ccc(C(F)(F)F)cc2)N2C[C@H](C)CC[C@@H](C2=O)N(C)C(=O)CN(C)C1=O [PP1383],11.2 nM,0.17 nM,–,–,B (a compound having 3 or more and less than 10 is denoted as B),B (a compound having 3 or more and less than 10 is denoted as B),–,–,–,–
CCC[C@H]1C(=O)N[C@@H]([C@@H](C)CC)C(=O)N(C2CC2)CC(=O)N(C)[C@H]2C/C=C\CCN(C2=O)[C@@H](Cc2ccc(C)cc2)C(=O)N(C)CC(=O)N[C@@H](CCc2ccc(Cl)c(Cl)c2)C(=O)N2C[C@H](OC3CCC3)C[C@H]2C(=O)NC2(CC(C)(C)C2)C(=O)N(C)[C@@H](C2CCCC2)C(=O)N(C)[C@H](C(=O)N(C)C)CC(=O)N1C [PP2616],66.4 nM,–,0.8 nM,–,–,–,A (a compound having 10 or more and less than 20 is denoted as A),A (a compound having 10 or more and less than 20 is denoted as A),–,–
CCO[C@@H]1C[C@H]2C(=O)NC3(CCC3)C(=O)N(C)[C@@H](C3CCCC3)C(=O)N(C)[C@H](C(=O)N3CCCC3)CC(=O)N(C)[C@@H](CC3CCCCC3)C(=O)N[C@@H]([C@@H](C)CC)C(=O)N(C)CC(=O)N(C)[C@H]3C/C=C\CCN(C3=O)[C@@H](Cc3ccc(C(F)(F)F)cc3)C(=O)N(C)CC(=O)N[C@@H](CCc3cc(F)c(C(F)(F)F)c(F)c3)C(=O)N2C1 [PP1419],40.4 nM,0.26 nM,–,–,A (a compound having 10 or more and less than 20 is denoted as A),AA (a compound having 20 or more is denoted as AA),–,–,–,–
"CCC[C@H]1C(=O)N[C@@H]([C@@H](C)CC)C(=O)N(C)CC(=O)N(C)[C@H]2C/C=C\CCN(C2=O)[C@@H](CC2CCC(F)(F)CC2)C(=O)N(C)CC(=O)N[C@@H](CCc2cc(F)c(C(F)(F)F)c(F)c2)C(=O)N2C[C@H](OCC)C[C@H]2C(=O)NC2(CCC2)C(=O)N(C)[C@@H](C2CCCC2)C(=O)N(C)[C@H](C(=O)N(C)C)CC(=O)N1C [PP1450, (2S,8S,12R,14S,20S,23S,27S,30S,36S,38Z)-20-cyclopentyl-2-[(4,4-difluorocyclohexyl)methyl]-8-[2-[3,5-difluoro-4-(trifluoromethyl)phenyl]ethyl]-12-ethoxy-N,N,4,19,22,26,32,35-octamethyl-30-[(1S)-1-methylpropyl]-3,6,9,15,18,21,25,28,31,34,42-undecaoxo-27-propyl-spiro[1,4,7,10,16,19,22,26,29,32,35-undecazatricyclo[34.5.1.0^10,14]dotetracont-38-ene-17,1′-cyclobutane]-23-carboxamide]",50.1 nM,0.14 nM,–,–,A (a compound having 10 or more and less than 20 is denoted as A),A (a compound having 10 or more and less than 20 is denoted as A),–,–,–,–

# The remaining compounds from weak to strong by IC50 [3], led by results:
IC50 [3],"Kd [4, 5]","Kd [4, 6]","Kd ([4]; SPR, Single Cycle Kinetics)",Structure (SMILES),HRAS/KRAS (ratio of KD value for HRAS to KD value for KRAS) ([1]; KD ratio class),NRAS/KRAS (ratio of KD value for NRAS to KD value for KRAS) ([2]; KD ratio class),HRAS/KRAS (ratio of KD value with respect to GDP-bound HRAS wild-type protein to KD value with respect to KRAS) [1],NRAS/KRAS (ratio of KD value with respect to GDP-bound NRAS wild-type protein to KD value with respect to KRAS) [2],HRAS/KRAS (ratio of KD value for HRAS to KD value for KRAS) [1],NRAS/KRAS (ratio of KD value for NRAS to KD value for KRAS) [2]
207 nM,–,4.6 nM,–,CCC[C@H]1C(=O)N[C@@H](CC(C)C)C(=O)N(CC)CC(=O)N(C)[C@H]2C/C=C\CCN(C2=O)[C@@H](Cc2ccc(C)cc2)C(=O)N(C)CC(=O)N[C@@H](CCc2ccc(C(F)(F)F)c(Cl)c2)C(=O)N2C[C@H](OCC)C[C@H]2C(=O)NC2(CC(C)(C)C2)C(=O)N(C)[C@@H](C2CCCC2)C(=O)N(C)[C@H](C(=O)N(C)C)CC(=O)N1C [PP2528],–,–,B (a compound having 3 or more and less than 10 is denoted as B),A (a compound having 10 or more and less than 20 is denoted as A),–,–
158 nM,–,–,2.9 nM,CCO[C@@H]1C[C@H]2C(=O)NC3(CCC3)C(=O)N(C)[C@@H](C3CCCC3)C(=O)N(C)[C@H](C(=O)N3CCOCC3)CC(=O)N(C)[C@@H](Cc3cccc(C)c3)C(=O)N[C@@H]([C@@H](C)CC)C(=O)N(C)CC(=O)N(C)[C@H]3CCCCCN(C3=O)[C@@H](Cc3ccc(C(F)(F)F)cc3)C(=O)N(C)CC(=O)N[C@@H](CCc3cc(F)c(C(F)(F)F)c(F)c3)C(=O)N2C1 [PP0932],–,–,–,–,B (a compound having 3 or more and less than 10 is denoted as B),B (a compound having 3 or more and less than 10 is denoted as B)
144 nM,–,4.8 nM,–,CCOC[C@H]1C(=O)N[C@@H]([C@@H](C)CC)C(=O)N(C2CC2)CC(=O)N(C)[C@@H]2C/C=C\CCN(C2=O)[C@@H](Cc2ccc(C)cc2)C(=O)N(C)CC(=O)N[C@@H](CCc2ccc(C(F)(F)F)c(OC)c2)C(=O)N2C[C@H](OCC)C[C@@H]2C(=O)NC2(CC(C)(C)C2)C(=O)N(C)[C@H](CC2CCC2)C(=O)N(C)[C@H](C(=O)N(C)C)CC(=O)N1C (stereo in doubt) [PP2760],–,–,B (a compound having 3 or more and less than 10 is denoted as B),A (a compound having 10 or more and less than 20 is denoted as A),–,–
52 nM,–,0.97 nM,–,CCC[C@H]1C(=O)N[C@@H]([C@@H](C)CC)C(=O)N(C)CC(=O)N(C)[C@H]2C/C=C\CCN(C2=O)[C@@H](Cc2ccc(C)cc2)C(=O)N(C)CC(=O)N[C@@H](CCc2ccc(C(F)(F)F)c(OC)c2)C(=O)N2C[C@H](OCC)C[C@H]2C(=O)NC2(CC(C)(C)C2)C(=O)N(C)[C@@H](CC2CCC2)C(=O)N(C)[C@H](C(=O)N(C)C)CC(=O)N1C [PP2753],–,–,B (a compound having 3 or more and less than 10 is denoted as B),A (a compound having 10 or more and less than 20 is denoted as A),–,–
9.7 nM,0.17 nM,–,–,CCO[C@@H]1C[C@H]2C(=O)NC3(CC(C)(C)C3)C(=O)N(C)[C@@H](C3CCCC3)C(=O)N(C)[C@H](C(=O)N(CC)CC)CC(=O)N(C)[C@@H](CC)C(=O)N[C@@H]([C@@H](C)CC)C(=O)N(C)CC(=O)N(C)[C@H]3C/C=C\CCN(C3=O)[C@@H](Cc3ccc(C(F)(F)F)cc3)C(=O)N(C)CC(=O)N[C@@H](CCc3cc(F)c(C(F)(F)F)c(F)c3)C(=O)N2C1 [PP1580],A (a compound having 10 or more and less than 20 is denoted as A),A (a compound having 10 or more and less than 20 is denoted as A),–,–,–,–
